Values joined by “and” are separate entries in the source; they are usually repeats but may differ in a detail not shown here. Equal values may be shown once.
Tested on: 743489-274-T-PDC complex spheroid viability
Experiment: Anticancer human tumor 743489-274-T-PDC patient-derived renal cell carcinoma cell line growth inhibition
Settings: for viability, T/C: stronger effect = lower value
Procedure, shortened: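 Drug combinations with the LSD1 inhibitor iadademstat tested on tumor cells co-cultured as spheroids with endothelial cells and mesenchymal stem cells. Concentrations descended in half-log increments from clinical Cmax or 10 microM.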

[1] = curve of first compound, second compound 0.1 µM
[2] = curve of first compound, second compound 0.316 µM
[3] = curve of first compound, second compound 1 µM
[4] = curve of first compound, second compound 3.16 µM
[5] = curve of first compound, second compound 10 µM
[6] = second compound 0.1 µM, first compound 0.00949 µM
[7] = second compound 0.1 µM, first compound 0.03 µM
[8] = second compound 0.1 µM, first compound 0.0949 µM
[9] = second compound 0.1 µM, first compound 0.3 µM
[10] = second compound 0.316 µM, first compound 0.00949 µM
[11] = second compound 0.316 µM, first compound 0.03 µM
[12] = second compound 0.316 µM, first compound 0.0949 µM
[13] = second compound 0.316 µM, first compound 0.3 µM
[14] = second compound 1 µM, first compound 0.00949 µM
[15] = second compound 1 µM, first compound 0.03 µM
[16] = second compound 1 µM, first compound 0.0949 µM
[17] = second compound 1 µM, first compound 0.3 µM
[18] = second compound 3.16 µM, first compound 0.00949 µM
[19] = second compound 3.16 µM, first compound 0.03 µM
[20] = second compound 3.16 µM, first compound 0.0949 µM
[21] = second compound 3.16 µM, first compound 0.3 µM
[22] = second compound 10 µM, first compound 0.00949 µM
[23] = second compound 10 µM, first compound 0.03 µM
[24] = second compound 10 µM, first compound 0.0949 µM
[25] = second compound 10 µM, first compound 0.3 µM
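Also: spheroids exposed to compounds for 7 days before readout.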
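For viability, T/C in this document: 100% = DMSO vehicle control wells.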

Nc1ccn(C2OC(CO)C(O)C2(F)F)c(=O)n1 (centres undefined) + NC1CCC(NC2CC2c2ccccc2)CC1
IC50 [1]: > 300 nM | IC50 [2]: > 300 nM | IC50 [3]: > 300 nM | IC50 [4]: > 300 nM | IC50 [5]: > 300 nM | viability, T/C (second compound 0.1 µM, first compound 0.000949 µM): 77.8% | viability, T/C (second compound 0.1 µM, first compound 0.003 µM): 72.3% | viability, T/C [6]: 71.5% | viability, T/C [7]: 81.7% | viability, T/C [8]: 68.9% | viability, T/C [9]: 78.4% | viability, T/C (second compound 0.316 µM, first compound 0.000949 µM): 86.3% | viability, T/C (second compound 0.316 µM, first compound 0.003 µM): 80% | viability, T/C [10]: 74.6% | viability, T/C [11]: 79.2% | viability, T/C [12]: 73.2% | viability, T/C [13]: 69.6% | viability, T/C (second compound 1 µM, first compound 0.000949 µM): 68.5% | viability, T/C (second compound 1 µM, first compound 0.003 µM): 71.7% | viability, T/C [14]: 74.6% | viability, T/C [15]: 84.9% | viability, T/C [16]: 76.5% | viability, T/C [17]: 79.1% | viability, T/C (second compound 3.16 µM, first compound 0.000949 µM): 81.5% | viability, T/C (second compound 3.16 µM, first compound 0.003 µM): 80% | viability, T/C [18]: 85.2% | viability, T/C [19]: 78.8% | viability, T/C [20]: 76.4% | viability, T/C [21]: 68.8% | viability, T/C (second compound 10 µM, first compound 0.000949 µM): 91.7% | viability, T/C (second compound 10 µM, first compound 0.003 µM): 78.8% | viability, T/C [22]: 84.8% | viability, T/C [23]: 92.7% | viability, T/C [24]: 74.3% | viability, T/C [25]: 80.5%

COc1cc(C2c3cc4c(cc3C(OC3OC5COC(C)OC5C(O)C3O)C3COC(=O)C23)OCO4)cc(OC)c1O (centres undefined)
viability, T/C (compound 0.00949 µM): 98.2% and 111% | viability, T/C (compound 0.03 µM): 114% and 112% | viability, T/C (compound 0.0949 µM): 70.3% and 81.1% | viability, T/C (compound 0.3 µM): 92.8% and 99.4% | viability, T/C (compound 0.949 µM): 98.9% and 88.8% | viability, T/C (compound 3 µM): 82% and 91.5% | IC50 (curve of compound): > 3000 nM

COc1ccc([C@@H](O)c2cc(-c3ncnc4cc(N5CCOCC5)ccc34)c(F)cc2Cl)nn1
viability, T/C (compound 0.0316 µM): 108% and 93.4% | viability, T/C (compound 0.1 µM): 100% and 95.8% | viability, T/C (compound 0.316 µM): 90.5% and 72.5% | viability, T/C (compound 1 µM): 59.4% and 43.6% | viability, T/C (compound 3.16 µM): 38.7% and 21.3% | viability, T/C (compound 10 µM): 20.8% and 19.4% | IC50 (curve of compound): 1730 nM and 753 nM

CCN(c1cc(-c2ccc(CN3CCOCC3)cc2)cc(C(=O)NCc2c(C)cc(C)[nH]c2=O)c1C)C1CCOCC1 + NC1CCC(NC2CC2c2ccccc2)CC1
IC50 [1]: > 3000 nM | IC50 [2]: > 3000 nM | IC50 [3]: > 3000 nM | IC50 [4]: > 3000 nM | IC50 [5]: > 3000 nM | viability, T/C [6]: 104% | viability, T/C [7]: 103% | viability, T/C [8]: 101% | viability, T/C [9]: 102% | viability, T/C (second compound 0.1 µM, first compound 0.949 µM): 107% | viability, T/C (second compound 0.1 µM, first compound 3 µM): 104% | viability, T/C [10]: 91.1% | viability, T/C [11]: 98.5% | viability, T/C [12]: 97.4% | viability, T/C [13]: 96.2% | viability, T/C (second compound 0.316 µM, first compound 0.949 µM): 104% | viability, T/C (second compound 0.316 µM, first compound 3 µM): 102% | viability, T/C [14]: 99.8% | viability, T/C [15]: 106% | viability, T/C [16]: 101% | viability, T/C [17]: 105% | viability, T/C (second compound 1 µM, first compound 0.949 µM): 104% | viability, T/C (second compound 1 µM, first compound 3 µM): 106% | viability, T/C [18]: 107% | viability, T/C [19]: 106% | viability, T/C [20]: 110% | viability, T/C [21]: 105% | viability, T/C (second compound 3.16 µM, first compound 0.949 µM): 113% | viability, T/C (second compound 3.16 µM, first compound 3 µM): 111% | viability, T/C [22]: 109% | viability, T/C [23]: 107% | viability, T/C [24]: 108% | viability, T/C [25]: 95.7% | viability, T/C (second compound 10 µM, first compound 0.949 µM): 100% | viability, T/C (second compound 10 µM, first compound 3 µM): 104%

Source: PubChem BioAssay AID1918942 (Molecular Pharmacology Branch, DTP, NCI, 2023)
